5 compounds from ChEMBL document CHEMBL1201862, “PubChem BioAssay data set” (2004) can be followed below.

Assay [1] is described as follows: inhibitors of intracellular T. cruzi replication, confirmation, NIH3T3 host cells, beta-gal luminescence (AID 2044).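 Also: intracellular parasites grown in NIH/3T3 mouse fibroblasts as host cells; luminescent beta-galactosidase reporter signal from transgenic T. cruzi replicating inside host cells; inhibitors lower the luminescence signal.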 It counts as functional, cell-based.
Assay [2] in a line: growth suppression of PTEN-null colon cells, dose response, cell-based, HCT116 PTEN knockout (AID 1047).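 Also: HCT116 colon tumor cells with PTEN knocked out; cells exposed to compound for 60 hours before readout; potency for loss of cell viability measured by luminescence.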 Type of assay: functional.
A short description of assay [3]: cytotoxicity toward NIH3T3 fibroblasts, dose response, counter-screen, cell-based, ATP luminescence, mouse fibroblasts (AID 2010).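 Also: cells exposed to compound for about 90 hours before reading.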 Type of assay: functional.
Assay [4] is described as follows: growth suppression of beta-catenin-knockout colon cells, dose response, cell-based, HCT116, human colon tumor (AID 1045).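 Also: HCT116 colon tumor cells with beta catenin knocked out; cells exposed to compound for 60 hours.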 It counts as functional.
The target of a further assay is Nonstructural protein 1 (Influenza A virus, UniProt Q194T2). Type of assay: functional, Influenza A virus (A/California/07/2009(H1N1)).
Chain of Nonstructural protein 1 (Q194T2 whole entry): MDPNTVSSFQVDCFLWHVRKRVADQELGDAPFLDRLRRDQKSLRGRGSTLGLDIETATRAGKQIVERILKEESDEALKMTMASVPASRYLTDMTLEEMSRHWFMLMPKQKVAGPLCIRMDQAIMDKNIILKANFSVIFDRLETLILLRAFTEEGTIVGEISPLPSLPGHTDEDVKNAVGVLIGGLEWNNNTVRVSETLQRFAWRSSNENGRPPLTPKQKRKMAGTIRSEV
In assay [5] the target is DNA (cytosine-5)-methyltransferase 1 (Homo sapiens, UniProt P26358). Briefly: DNMT1 methyltransferase inhibitors, confirmation, biochemical, fluorescent molecular beacon (AID 602386). Type of assay: functional.
Chain of DNA (cytosine-5)-methyltransferase 1 (P26358 whole entry): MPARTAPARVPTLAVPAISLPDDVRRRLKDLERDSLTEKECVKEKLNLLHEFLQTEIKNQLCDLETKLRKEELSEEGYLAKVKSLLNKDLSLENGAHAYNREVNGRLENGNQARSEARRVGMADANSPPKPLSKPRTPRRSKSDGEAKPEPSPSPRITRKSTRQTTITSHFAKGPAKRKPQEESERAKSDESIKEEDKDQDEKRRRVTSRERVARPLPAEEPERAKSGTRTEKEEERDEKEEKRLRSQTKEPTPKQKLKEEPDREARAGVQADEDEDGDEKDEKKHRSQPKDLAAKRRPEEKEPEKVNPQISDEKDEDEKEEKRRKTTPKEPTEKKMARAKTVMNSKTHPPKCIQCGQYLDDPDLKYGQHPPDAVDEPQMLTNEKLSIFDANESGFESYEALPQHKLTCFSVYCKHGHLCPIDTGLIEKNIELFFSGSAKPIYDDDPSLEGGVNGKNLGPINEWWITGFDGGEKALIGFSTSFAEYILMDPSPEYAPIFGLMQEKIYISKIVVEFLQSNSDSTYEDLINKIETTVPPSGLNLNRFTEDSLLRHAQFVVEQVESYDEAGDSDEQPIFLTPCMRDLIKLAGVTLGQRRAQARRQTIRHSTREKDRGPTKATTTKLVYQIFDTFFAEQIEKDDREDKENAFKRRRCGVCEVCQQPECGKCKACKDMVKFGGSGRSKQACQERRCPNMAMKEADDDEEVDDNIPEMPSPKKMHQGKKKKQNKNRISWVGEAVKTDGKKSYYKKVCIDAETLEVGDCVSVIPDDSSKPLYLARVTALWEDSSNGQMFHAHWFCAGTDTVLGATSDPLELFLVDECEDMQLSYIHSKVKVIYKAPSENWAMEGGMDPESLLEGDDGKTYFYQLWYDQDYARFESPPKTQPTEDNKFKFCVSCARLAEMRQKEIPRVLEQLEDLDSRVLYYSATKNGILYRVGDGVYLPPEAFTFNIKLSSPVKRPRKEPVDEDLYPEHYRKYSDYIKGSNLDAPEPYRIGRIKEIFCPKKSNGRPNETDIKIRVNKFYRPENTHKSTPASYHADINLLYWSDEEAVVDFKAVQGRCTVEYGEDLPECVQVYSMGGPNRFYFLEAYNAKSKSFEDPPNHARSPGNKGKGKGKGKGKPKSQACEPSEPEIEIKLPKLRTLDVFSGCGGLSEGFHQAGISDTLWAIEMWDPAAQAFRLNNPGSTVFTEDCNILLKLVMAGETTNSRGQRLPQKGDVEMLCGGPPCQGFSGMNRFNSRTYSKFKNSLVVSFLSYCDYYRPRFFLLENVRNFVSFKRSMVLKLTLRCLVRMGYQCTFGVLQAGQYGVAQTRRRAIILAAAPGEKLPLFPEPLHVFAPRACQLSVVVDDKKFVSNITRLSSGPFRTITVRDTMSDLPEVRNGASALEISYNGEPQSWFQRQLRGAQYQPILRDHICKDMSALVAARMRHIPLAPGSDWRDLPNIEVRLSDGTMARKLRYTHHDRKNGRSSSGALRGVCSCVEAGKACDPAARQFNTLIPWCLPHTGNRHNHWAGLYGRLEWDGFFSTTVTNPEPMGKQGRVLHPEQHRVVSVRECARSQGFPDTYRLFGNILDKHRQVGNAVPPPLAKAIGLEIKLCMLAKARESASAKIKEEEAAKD
Assay [6] in a line: DNA binding of candidate compounds, dose response, artefact control for RAD54 inhibitor project, biochemical, fluorescence polarization, cherry-pick (AID 651673). Type of assay: functional.
Assay [7] has as its target T1, DNA repair and recombination protein RAD54-like (Homo sapiens, UniProt Q92698).
T1 sequence (Q92698 whole entry): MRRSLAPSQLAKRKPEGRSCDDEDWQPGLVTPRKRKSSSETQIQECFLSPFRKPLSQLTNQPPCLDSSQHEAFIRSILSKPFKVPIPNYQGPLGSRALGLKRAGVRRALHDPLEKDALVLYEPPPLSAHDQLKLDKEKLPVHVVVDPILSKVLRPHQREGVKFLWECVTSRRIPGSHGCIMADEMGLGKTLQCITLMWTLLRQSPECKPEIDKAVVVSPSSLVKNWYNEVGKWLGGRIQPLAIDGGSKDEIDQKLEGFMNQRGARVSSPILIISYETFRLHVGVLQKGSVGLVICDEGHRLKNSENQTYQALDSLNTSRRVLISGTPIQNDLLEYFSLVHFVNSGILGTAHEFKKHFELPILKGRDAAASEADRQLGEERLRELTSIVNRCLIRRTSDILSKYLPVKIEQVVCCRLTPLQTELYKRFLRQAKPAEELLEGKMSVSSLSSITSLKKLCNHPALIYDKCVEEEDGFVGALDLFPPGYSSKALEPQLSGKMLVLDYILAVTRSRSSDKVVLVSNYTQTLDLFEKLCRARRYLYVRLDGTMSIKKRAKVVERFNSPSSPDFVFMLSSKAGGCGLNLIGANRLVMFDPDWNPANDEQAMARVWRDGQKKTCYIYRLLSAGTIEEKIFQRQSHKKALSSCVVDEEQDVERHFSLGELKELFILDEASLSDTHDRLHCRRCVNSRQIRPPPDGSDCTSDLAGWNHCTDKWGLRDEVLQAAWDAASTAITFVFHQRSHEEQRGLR
Briefly: inhibitors of human RAD54 branch migration, confirmation, biochemical, fluorescence, cherry-picked samples, dose series (AID 651657). It counts as functional.

Assay [8] addresses SWI/SNF-related matrix-associated actin-dependent regulator of chromatin subfamily A member 2 (Homo sapiens, UniProt P51531). Briefly: Luminescence-based cell-based high throughput dose response assay to identify activators of the function of SWI/SNF related, matrix associated, actin dependent regulator of chromatin, subfamily a, member 2 (SMARCA2, BRM). It counts as functional.

A short description of assay [9]: Counterscreen for activators of the function of SWI/SNF related, matrix associated, actin dependent regulator of chromatin, subfamily a, member 2 (SMARCA2, BRM): Luminescence-based cell-based high throughput dose response assay to identify non-selective compounds using the VP16 reporter assay. Type of assay: functional. (In general: Counterscreens check selectivity or assay interference.)

A further assay has as its target Genome polyprotein (dengue virus type 2, UniProt P29990). Briefly: Dengue-2 NS5 methyltransferase inhibitors, primary screen, biochemical, confirmation dose response (AID 588689). It counts as functional.
In assay [10] the target is Arf-GAP with SH3 domain, ANK repeat and PH domain-containing protein 1 (Homo sapiens, UniProt Q9ULH1). It counts as functional.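 Also: biochemical fluorescence polarization dose–response screen measuring inhibition of ASAP1; ASAP1 GAP domain stimulating GTP hydrolysis by truncated human ARF1.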
Chain of Arf-GAP with SH3 domain, ANK repeat and PH domain-containing protein 1 (Q9ULH1 whole entry, the tested form may be a part): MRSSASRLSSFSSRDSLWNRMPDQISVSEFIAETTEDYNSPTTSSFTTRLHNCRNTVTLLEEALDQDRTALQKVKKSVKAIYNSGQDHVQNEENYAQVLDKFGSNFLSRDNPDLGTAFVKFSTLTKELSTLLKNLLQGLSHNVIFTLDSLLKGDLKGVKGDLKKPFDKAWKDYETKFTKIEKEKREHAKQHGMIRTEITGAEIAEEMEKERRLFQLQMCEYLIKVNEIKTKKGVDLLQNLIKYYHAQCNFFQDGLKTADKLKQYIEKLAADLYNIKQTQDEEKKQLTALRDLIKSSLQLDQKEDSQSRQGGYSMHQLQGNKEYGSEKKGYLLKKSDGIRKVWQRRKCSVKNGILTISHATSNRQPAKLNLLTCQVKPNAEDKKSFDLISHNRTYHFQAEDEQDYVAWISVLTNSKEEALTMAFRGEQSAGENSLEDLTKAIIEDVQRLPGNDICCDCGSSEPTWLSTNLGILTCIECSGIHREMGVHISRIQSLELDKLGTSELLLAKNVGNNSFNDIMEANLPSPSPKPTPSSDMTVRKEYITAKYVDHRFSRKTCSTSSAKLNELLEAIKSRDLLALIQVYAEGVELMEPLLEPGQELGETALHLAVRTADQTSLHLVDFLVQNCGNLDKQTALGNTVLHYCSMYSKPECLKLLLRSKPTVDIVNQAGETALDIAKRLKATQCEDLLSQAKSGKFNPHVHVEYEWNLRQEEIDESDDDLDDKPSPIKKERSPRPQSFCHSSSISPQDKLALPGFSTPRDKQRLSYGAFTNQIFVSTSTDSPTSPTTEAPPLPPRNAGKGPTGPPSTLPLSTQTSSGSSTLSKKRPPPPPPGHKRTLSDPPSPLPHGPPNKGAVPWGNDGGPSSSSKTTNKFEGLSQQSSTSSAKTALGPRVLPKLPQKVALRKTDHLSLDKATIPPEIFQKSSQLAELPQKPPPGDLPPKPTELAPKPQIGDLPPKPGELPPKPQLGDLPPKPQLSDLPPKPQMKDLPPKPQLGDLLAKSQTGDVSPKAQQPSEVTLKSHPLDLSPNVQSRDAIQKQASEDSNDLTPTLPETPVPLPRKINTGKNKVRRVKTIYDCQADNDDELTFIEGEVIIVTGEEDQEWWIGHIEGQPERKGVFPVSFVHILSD
Assay [11] has as its target T2, RNA-binding protein pos-1 (Caenorhabditis elegans, UniProt G5EF15).
T2 sequence (G5EF15 whole entry): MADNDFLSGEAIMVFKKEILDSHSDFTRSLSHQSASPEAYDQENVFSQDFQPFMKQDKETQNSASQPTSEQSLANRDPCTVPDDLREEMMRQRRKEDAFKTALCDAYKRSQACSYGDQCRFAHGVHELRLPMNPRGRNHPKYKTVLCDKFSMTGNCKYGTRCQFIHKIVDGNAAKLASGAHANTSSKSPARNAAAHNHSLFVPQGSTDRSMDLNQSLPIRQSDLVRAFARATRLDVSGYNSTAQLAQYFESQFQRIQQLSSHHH
Briefly: inhibitors of POS-1/mex-3 RNA binding, dose response, biochemical, fluorescence polarization (AID 1964).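 Also: purified POS-1 fused to maltose binding protein made in E. coli; potency of compounds blocking POS-1 binding to fluorescent RNA.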 In general terms: In fluorescence polarisation assays a small probe gives low polarisation when free and higher when bound to something large.

Assay [12] has as its target T3, Zinc finger protein mex-5 (Caenorhabditis elegans, UniProt Q9XUB2).
T3 sequence (Q9XUB2 whole entry): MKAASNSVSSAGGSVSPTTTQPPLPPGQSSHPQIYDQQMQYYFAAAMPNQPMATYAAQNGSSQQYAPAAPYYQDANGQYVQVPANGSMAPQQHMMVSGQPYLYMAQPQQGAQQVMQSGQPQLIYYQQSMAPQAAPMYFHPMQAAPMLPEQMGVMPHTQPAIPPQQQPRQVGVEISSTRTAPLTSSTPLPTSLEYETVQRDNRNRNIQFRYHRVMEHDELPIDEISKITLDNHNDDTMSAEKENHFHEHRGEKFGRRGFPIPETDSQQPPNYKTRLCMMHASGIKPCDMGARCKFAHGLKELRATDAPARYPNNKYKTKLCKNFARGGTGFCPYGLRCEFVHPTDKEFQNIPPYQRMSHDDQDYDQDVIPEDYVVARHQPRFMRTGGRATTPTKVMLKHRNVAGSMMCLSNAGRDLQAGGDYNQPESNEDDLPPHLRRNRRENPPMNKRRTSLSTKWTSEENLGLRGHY
Briefly: MEX-5/TCR-2 RNA interaction inhibitors, dose response, biochemical, C. elegans, fluorescence polarization (AID 1960).

A further assay deals with Large T antigen (Simian virus 40, UniProt P03070). It counts as functional, Betapolyomavirus macacae.
Chain of Large T antigen (P03070 whole entry): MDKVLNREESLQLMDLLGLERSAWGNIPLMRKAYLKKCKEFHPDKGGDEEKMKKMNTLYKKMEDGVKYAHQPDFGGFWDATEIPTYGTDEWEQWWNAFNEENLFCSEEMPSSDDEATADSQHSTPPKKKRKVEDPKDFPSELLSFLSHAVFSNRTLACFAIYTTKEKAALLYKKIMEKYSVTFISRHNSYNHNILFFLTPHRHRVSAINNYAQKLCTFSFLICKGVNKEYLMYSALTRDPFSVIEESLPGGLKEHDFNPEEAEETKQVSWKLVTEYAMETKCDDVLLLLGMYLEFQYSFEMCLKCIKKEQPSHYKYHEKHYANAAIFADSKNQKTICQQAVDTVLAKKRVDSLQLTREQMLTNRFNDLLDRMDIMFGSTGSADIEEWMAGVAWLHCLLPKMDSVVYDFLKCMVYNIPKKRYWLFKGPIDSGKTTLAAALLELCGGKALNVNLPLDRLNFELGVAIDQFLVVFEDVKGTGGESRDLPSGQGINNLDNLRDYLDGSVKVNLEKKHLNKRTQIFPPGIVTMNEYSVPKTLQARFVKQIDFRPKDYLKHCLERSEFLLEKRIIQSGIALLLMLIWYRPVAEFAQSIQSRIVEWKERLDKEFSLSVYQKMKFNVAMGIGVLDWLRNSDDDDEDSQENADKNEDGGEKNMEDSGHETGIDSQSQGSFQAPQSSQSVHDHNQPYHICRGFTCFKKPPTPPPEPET
The target in assay [13] is T4, Replicative DNA helicase DnaB (Mycobacterium tuberculosis, UniProt P9WMR3).
T4 sequence (P9WMR3 whole entry): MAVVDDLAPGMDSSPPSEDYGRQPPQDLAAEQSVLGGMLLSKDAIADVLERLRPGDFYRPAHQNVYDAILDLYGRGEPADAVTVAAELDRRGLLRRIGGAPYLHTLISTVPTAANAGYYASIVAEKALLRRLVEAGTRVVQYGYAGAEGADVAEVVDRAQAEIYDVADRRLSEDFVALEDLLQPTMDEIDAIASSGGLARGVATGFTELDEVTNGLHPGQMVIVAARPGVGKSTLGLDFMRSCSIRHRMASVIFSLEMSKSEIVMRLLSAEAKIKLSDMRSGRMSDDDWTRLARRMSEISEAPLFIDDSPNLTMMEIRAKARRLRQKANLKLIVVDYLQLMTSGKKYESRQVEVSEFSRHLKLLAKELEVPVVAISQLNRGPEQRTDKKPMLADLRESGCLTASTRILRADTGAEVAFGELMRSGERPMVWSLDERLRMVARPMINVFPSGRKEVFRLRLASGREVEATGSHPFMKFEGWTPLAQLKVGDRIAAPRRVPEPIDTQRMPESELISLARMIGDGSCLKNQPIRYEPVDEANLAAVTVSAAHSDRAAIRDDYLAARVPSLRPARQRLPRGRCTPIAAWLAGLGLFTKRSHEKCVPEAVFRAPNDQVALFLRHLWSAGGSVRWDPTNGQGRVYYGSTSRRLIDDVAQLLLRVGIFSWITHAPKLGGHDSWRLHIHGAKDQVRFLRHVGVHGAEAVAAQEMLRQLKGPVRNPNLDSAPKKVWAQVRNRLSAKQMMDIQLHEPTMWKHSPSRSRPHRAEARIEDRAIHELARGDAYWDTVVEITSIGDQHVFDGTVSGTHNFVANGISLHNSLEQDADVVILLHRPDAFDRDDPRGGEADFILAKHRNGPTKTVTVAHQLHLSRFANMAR
Briefly: DnaB intein splicing inhibitors, dose response, biochemical, cell-free fluorescence (AID 449749). It counts as functional.

The next assay has as its target T5, Protein RecA (Mycobacterium tuberculosis, UniProt P9WHJ3).
T5 sequence (P9WHJ3 whole entry): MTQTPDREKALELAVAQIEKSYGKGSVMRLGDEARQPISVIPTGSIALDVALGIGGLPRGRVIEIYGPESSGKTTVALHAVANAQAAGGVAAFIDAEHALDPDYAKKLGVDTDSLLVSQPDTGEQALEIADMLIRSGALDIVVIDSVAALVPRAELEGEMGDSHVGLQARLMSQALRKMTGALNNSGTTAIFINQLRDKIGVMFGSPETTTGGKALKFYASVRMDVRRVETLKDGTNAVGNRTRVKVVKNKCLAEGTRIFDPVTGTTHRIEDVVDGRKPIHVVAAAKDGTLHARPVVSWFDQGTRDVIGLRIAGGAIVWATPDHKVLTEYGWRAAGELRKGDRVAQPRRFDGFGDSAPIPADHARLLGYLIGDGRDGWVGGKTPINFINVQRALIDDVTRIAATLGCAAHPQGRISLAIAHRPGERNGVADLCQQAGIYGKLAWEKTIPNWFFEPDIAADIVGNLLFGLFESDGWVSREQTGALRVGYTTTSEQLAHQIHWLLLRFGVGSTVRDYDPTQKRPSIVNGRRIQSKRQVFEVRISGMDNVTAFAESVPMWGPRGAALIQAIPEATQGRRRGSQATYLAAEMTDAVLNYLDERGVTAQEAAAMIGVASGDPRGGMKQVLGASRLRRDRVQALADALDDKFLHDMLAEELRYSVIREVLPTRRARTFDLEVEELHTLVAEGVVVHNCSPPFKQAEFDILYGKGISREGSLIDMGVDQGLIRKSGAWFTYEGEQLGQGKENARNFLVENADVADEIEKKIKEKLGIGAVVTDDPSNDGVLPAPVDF
Briefly: Fluorescence Cell-Free Homogeneous Dose Retest to Identify Inhibitors of RecA-Intein Splicing Activity. [Related pubchem assays (depositor defined):AID2097, AID2223, AID489010, AID492950]. Type of assay: functional.

The target in assay [14] is T6, Sentrin-specific protease 8 (Homo sapiens, UniProt Q96LD8).
T6 sequence (Q96LD8 whole entry): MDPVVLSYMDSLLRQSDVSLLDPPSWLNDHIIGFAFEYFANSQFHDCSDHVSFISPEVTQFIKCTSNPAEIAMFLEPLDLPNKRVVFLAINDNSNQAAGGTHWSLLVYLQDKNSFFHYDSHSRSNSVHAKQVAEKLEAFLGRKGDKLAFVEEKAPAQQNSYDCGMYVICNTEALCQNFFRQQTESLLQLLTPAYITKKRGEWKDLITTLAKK
It counts as functional.

Assay [15] concerns the target T6, Sentrin-specific protease 8. Type of assay: functional. The source holds these as a separate data set.
The target in assay [16] is Botulinum neurotoxin type F (Clostridium botulinum, UniProt P30996). Briefly: High-throughput multiplex microsphere dose response for inhibitors of toxin protease, specifically Botulinum neurotoxin light chain F protease, compounds from Cherry Pick 02. Type of assay: functional. The note with it: read-out: EC50_MICROM.
Chain of Botulinum neurotoxin type F (P30996 1-436 limits assumed): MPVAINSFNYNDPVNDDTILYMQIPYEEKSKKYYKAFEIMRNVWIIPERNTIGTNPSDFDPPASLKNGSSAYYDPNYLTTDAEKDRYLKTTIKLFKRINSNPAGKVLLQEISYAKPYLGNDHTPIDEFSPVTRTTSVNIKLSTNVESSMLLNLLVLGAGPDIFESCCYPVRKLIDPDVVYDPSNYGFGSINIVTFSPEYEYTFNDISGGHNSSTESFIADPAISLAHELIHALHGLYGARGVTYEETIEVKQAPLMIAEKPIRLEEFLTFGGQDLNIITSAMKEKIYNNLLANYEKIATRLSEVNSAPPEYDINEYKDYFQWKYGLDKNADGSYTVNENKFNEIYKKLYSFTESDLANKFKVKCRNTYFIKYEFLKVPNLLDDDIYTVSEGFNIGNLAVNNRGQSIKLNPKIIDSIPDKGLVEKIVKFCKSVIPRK
The target of assay [17] is T7, Sentrin-specific protease 1 (Homo sapiens, UniProt Q9P0U3). Briefly: potency of human SENP1 inhibitors, dose response, biochemical, kinetic FRET (AID 651697). Type of assay: functional. The note with it: read-out: IC50_Mean.
T7 sequence (Q9P0U3 whole entry, the tested form may be a part): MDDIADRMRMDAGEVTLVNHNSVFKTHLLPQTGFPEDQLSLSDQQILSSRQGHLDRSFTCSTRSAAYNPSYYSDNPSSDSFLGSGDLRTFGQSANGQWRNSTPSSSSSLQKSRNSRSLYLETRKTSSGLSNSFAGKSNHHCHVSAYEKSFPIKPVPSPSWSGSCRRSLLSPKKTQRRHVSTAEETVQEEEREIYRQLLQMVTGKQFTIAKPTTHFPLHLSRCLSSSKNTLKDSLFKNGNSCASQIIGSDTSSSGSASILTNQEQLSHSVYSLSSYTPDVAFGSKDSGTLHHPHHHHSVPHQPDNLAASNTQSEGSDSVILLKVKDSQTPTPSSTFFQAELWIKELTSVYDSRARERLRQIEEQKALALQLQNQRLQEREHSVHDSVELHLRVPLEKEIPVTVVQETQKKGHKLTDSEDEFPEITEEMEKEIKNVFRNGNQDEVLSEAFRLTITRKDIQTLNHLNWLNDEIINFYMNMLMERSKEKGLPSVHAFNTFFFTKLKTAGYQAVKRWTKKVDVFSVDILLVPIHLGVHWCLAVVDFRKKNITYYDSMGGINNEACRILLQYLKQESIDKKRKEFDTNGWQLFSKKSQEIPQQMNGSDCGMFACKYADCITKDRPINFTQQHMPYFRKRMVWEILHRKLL
For assay [18], the target named is T7, Sentrin-specific protease 1. Briefly: Dose response confirmation of small molecule inhibitors of the catalytic domain of the SUMO protease, SENP1 in a FRET assay. Type of assay: functional. The note with it: read-out: IC50_Mean.

What is called AC50 is the concentration giving half of the maximal activity seen.

The source made the active and inactive calls. Bounds are passed on as bounds.

`CCN(CC)CCNc1nc2cc(OC)c(OC)cc2c2nc(-c3ccccc3)nn12`: the EC50 in assay [1] was 0.678 µM (active); in [2], 4.9 µM (active); in assay [3], > 30 µM (not active); in assay [4] it was 3.48 µM (active); in assay [8], > 91.2 µM (inactive); in [9], > 91.2 µM (inactive). Also, the figures for the IC50 (at Nonstructural protein 1; in [5]) were > 100 µM (active) and > 99 µM (inactive), respectively. For the same compound, the values for the AC50 in assay [6] and in [7] were 51.8 µM (active) and 1.92 µM (active), respectively.

For the compound `Cc1cc(C)c2nc(N3C(=O)C(O)=C(C(=O)c4ccco4)C3c3cccc(O)c3)sc2c1` (configuration not stated), the figures for the IC50 (at Genome polyprotein; in assay [10]) were 32.4 µM (active) and 81.8 µM (inactive), respectively.

Take `CCOc1cc(C(c2c(C)[nH][nH]c2=O)c2c(C)[nH][nH]c2=O)ccc1O`: the figures for the EC50 (in [11]; in assay [12]; at Protein RecA) were 57.9 µM (active), 107 µM (active) and 0.24 µM (active), respectively. Also, the results for the IC50 (at Large T antigen; in assay [14]; in assay [15]) were > 100 µM (active), 16.2 µM (active) and 21.4 µM (active), respectively. Besides, in [13], the AC50 was 0.302 µM (active).

On to `COc1ccccc1Cc1c(-c2ccc(C)cc2)nc2cc(C)c(Br)c(C)n12`, for which the EC50 in assay [16] is > 20 µM (inactive).

For `Cc1cc(C)c(Cn2c(C(=O)O)c(C=O)c3ccccc32)c(C)c1`, the results for the IC50 in [17] and in assay [18] were 16.9 µM (active) and 20.8 µM (inactive), respectively.
